Assay: Displacement of [3H]Cl-DPDPE from delta receptor in guinea pig brain homogenate

Molecule `COc1ccc2c3c1O[C@H]1C(=O)CC[C@@]4(NC(=O)CCc5ccc(Cl)cc5)[C@@H](C2)N(CC2CC2)CC[C@]314` [N-cyclopropylmethyl-14beta-[3'-(4'-chlorophenyl)propanamido]-7,8-dihydronorcodeinone] has a Ki of 5.1 nM.

In the case of `O=C(CCc1ccc(Cl)cc1)N[C@@]12CCC(=O)[C@@H]3Oc4c(O)ccc5c4[C@@]31CCN(CC1CC1)[C@@H]2C5` [N-cyclopropylmethyl-14beta-[3'-(4'-chlorophenyl)propanamido]-7,8-dihydronormorphinone], the Ki is reported as 0.6 nM.

`COc1ccc2c3c1O[C@H]1C(=O)CC[C@@]4(NCCCc5ccc(Cl)cc5)[C@@H](C2)N(CC2CC2)CC[C@]314` [N-cyclopropylmethyl-14beta-[3'-(4'-chlorophenyl)propylamino]-7,8-dihydronorcodeinone] gave a Ki of 31 nM.

With `O=C1CC[C@@]2(NCCCc3ccc(Cl)cc3)[C@H]3Cc4ccc(O)c5c4[C@@]2(CCN3CC2CC2)[C@H]1O5` [N-cyclopropylmethyl-14beta-[3'-(4'-chlorophenyl)propylamino]-7,8-dihydronormorphinone] the Ki was 1.1 nM.

Reference: BindingDB's records for doi:10.1021/jm060595u (University of Bristol, 2006)
